Data from BigSolDB 2.1.

Details: 298.15 K

## CC(=O)Oc1ccccc1C(=O)O
In 1,4-dioxane
  solubility (mole fraction): 0.126
In 2-ethylhexanol
  solubility (mole fraction): 0.0303
In 2-methyl-1-butanol
  solubility (mole fraction): 0.0344
In 2-methyl-1-pentanol
  solubility (mole fraction): 0.0321
In 2-pentanol
  solubility (mole fraction): 0.0435
In 3,7-dimethyl-1-octanol
  solubility (mole fraction): 0.0304
In 4-methyl-2-pentanol
  solubility (mole fraction): 0.0393
In MTBE
  solubility (mole fraction): 0.0401
In THF
  solubility (mole fraction): 0.19
In dibutyl ether
  solubility (mole fraction): 0.00709
In diethyl ether
  solubility (mole fraction): 0.0353
In diisopropyl ether
  solubility (mole fraction): 0.0122
In ethyl acetate
  solubility (mole fraction): 0.0458
In isobutanol
  solubility (mole fraction): 0.0319
In isopentanol
  solubility (mole fraction): 0.0381
In isopropanol
  solubility (mole fraction): 0.0523
In methyl acetate
  solubility (mole fraction): 0.0529
In methyl butyrate
  solubility (mole fraction): 0.0297
In n-butanol
  solubility (mole fraction): 0.0462
In n-butyl acetate
  solubility (mole fraction): 0.0335
In n-decanol
  solubility (mole fraction): 0.0365
In n-heptanol
  solubility (mole fraction): 0.0389
In n-hexanol
  solubility (mole fraction): 0.0397
In n-octanol
  solubility (mole fraction): 0.0358
In n-pentanol
  solubility (mole fraction): 0.0397
In n-pentyl acetate
  solubility (mole fraction): 0.0268
In n-propanol
  solubility (mole fraction): 0.0498
In propylene carbonate
  solubility (mole fraction): 0.0313
In sec-butanol
  solubility (mole fraction): 0.0536
In tert-amyl alcohol
  solubility (mole fraction): 0.0818
In tert-butanol
  solubility (mole fraction): 0.0684
